Measurements: patent US9452164B2, “Imidazopyridine derivatives, process for preparation thereof and therapeutic use thereof” (SANOFI, priority 2010, dated 2016)
Counter-ions that a name gives are not always drawn.

Columns and labels:
[1] = test system: HUVEC cells stimulated with FGF-2; test: FGF-2-induced in vitro angiogenesis of HUVEC cells; type: cell-based, human; conditions: HUVEC stimulated with FGF-2, 24 h, pseudotubule network length
Protocol: To do this, matrices composed of matrigel (growth factor reduced matrigel, Becton Dickinson 356230) and collagen (rat tail collagen type I, Becton Dickinson 354236) are deposited, at a rate of 160 μl, into each chamberslide well (Biocoat Cellware collagen, Type I, 8-well culturesides: Becton Dickinson 354630), or 60 μl per well of 96-well plates (Biocoat collagen I cellware, Becton Dickinson 354407). The matrix is prepared by mixing ⅓ of matrigel, 1 mg/ml final concentration of collagen, 0.1N NaOH (0.026× the volume of collagen in μl) and 1×PBS, and the volume is then adjusted with water. The gels are kept at 37° C. for 1 hour so as to allow them to polymerize. […] After 24 hours, the length of the network of microtubules formed was measured using a computer-assisted image analysis system (Imagenia Biocom, Courtaboeuf, France) and the total length of the pseudotubules in each well was determined. The average total length of the microcapillary network was calculated in μm for each condition corresponding to the average of 6 replicates. […]
In this experiment, the molecules are evaluated at 3 and 30 nM on induction of the angiogenesis of HUVEC human cells by FGF-2.

[2] = test system: HUVEC cells stimulated with FGF-2; test: FGF-2-induced in vitro proliferation of HUVEC cells; type: cell-based, human; conditions: HUVEC stimulated with FGF-2, ATP luminescence
Protocol: To do this, HUVEC human vein endothelial cells (promocell, C-12200) are seeded at a rate of 5000 cells per well of a 96-well plate (Biocoat collagen I cellware, Becton Dickinson 354650) in 100 μl of RPMI 1640 deprivation medium (Invitrogen, 31872-025) supplemented with 0.5% or 1% FCS, 2 mM glutamine, 1× sodium pyruvate (Invitrogen; 11360-039) and 1×NEAA (Invitrogen, 11140-035), overnight at 37° C. in the presence of 5% CO2. The following morning, the medium is suctioned-off and replaced with 50 μl of deprivation medium containing the antagonists at a 2× concentration, to which are added 50 μl of FGF-2 (R&D systems, 133-FB-025; Invitrogen, PHG0026) at 0.2 ng/ml (i.e. 2×). After 48 or 72 h, 100 μl of Cell Titer-GLO™ Luminescent Cell Viability Assay (Promega, G7571) are added for 10 min in order to measure, by means of a luminometer, the amount of ATP present in the cells and which is in relation to the number of cells per well corresponding to the cell proliferation.
The antagonists of the present invention are considered to be active as long as they are capable of inhibiting FGF-2-induced proliferation of HUVEC cells at a dose less than or equal to 300 nM.

OF1 female mice = test: Model of inflammatory angiogenesis in mice (air pocket granuloma, carmine red dye); type: in vivo; conditions: for % inhibition of the angiogenic parameter (dye content) / % inhibition of the inflammatory parameter (mass of the granuloma): daily oral, mice; for dye content corresponding to the angiogenesis / weight of the granuloma (dry weight of the skin), inflammation part: one week of daily treatment
Protocol: The model described by Colville-Nash et al., in 1995, makes it possible to study pharmacological agents capable of modulating the occurrence of angiogenesis in an inflammatory context. The model is developed on OF1 female mice (Charles River Laboratories) weighing approximately 25 g, and by groups of 12. The animals are anaesthetized with sodium pentobarbital (60 mg/kg; Sanofi Nutrition Sante animale)) intraperitoneally. An air pocket is created on the back of the mouse by subcutaneous injection of 3 ml of air. After they have awoken, the animals receive a treatment generally by gavage, and receive an injection of 0.5 ml of Freund's adjuvant (Sigma) with 0.1% of croton oil (Sigma) in the pocket. Seven days later, the mice are again anaesthetized and placed on a hot plate at 40° C. One ml of carmine red (Aldrich Chemicals, 5% in 10% of gelatin) is injected into the tail vein. The animals are then placed at 4° C. for 2-3 hours. The skins are then taken and dried for 24 h in an oven at 56° C. The dry tissues are weighed and placed in 1.8 ml of digestion solution (2 mM dithiothreitol, 20 mM Na2HPO4, 1 mM EDTA, 12 U/ml papain) for 24 h. The dye is then dissolved in 0.2 ml of 5M NaOH. The skins are centrifuged at 2000 rpm for 10 min at ambient temperature. The supernatants are filtered through 0.2 μm cellulose acetate membranes. The filtrates are read in a spectrophotometer at 492 nm against a carmine red calibration range. Two parameters are studyed: the dry weight of the granuloma and the amount of dye after digestion of the tissues. The results are expressed as mean values (±sem). The differences between the groups are tested with an ANOVA followed by a Dunnett's test, of which the reference group is the “solvent control” group.
The FGF-R antagonists are evaluated between 1 and 50 mg/kg using methylcellulose/tween (0.6% v/v) as vehicle or any other vehicle which allows the active ingredient to be solubilized. The molecules are administered daily, orally (one or two times a day) by gavage. The antagonists of the present invention are considered to be active as long as they enable a significant reduction in the angiogenic parameter, i.e. a reduction in the amount of carmine red dye in the skins of the animals tested.

For CCCn1c(=O)[nH]c2ccc(C(=O)c3ncc4ccccn34)cc2c1=O [Compound No. 1, 6-(Imidazo[1,5-a]pyridin-3-ylcarbonyl)-3-propylquinazoline-2,4(1H,3H)-dione], the melting point was 304 °C.

In the case of CCCn1c(=O)[nH]c2ccc(C(=O)c3nc(NS(C)(=O)=O)c4ccccn34)cc2c1=O [Compound No. 13, N-{3-[(2,4-Dioxo-3-propyl-1,2,3,4-tetrahydroquinazolin-6-yl)carbonyl]imidazo[1,5-a]pyridin-1-yl}methanesulphonamide], the melting point is reported as 334 °C.

With Cl.Cn1c(=O)n(Cc2ccc(F)cc2)c(=O)c2cc(C(=O)c3nc(-c4cccc(C(=O)OCCN5CCOCC5)c4)c4ccccn34)ccc21 the melting point was 215 °C.

For CCCn1c(=O)[nH]c2ccc(C(=O)c3nc(-c4cccc(-c5nc(C)no5)c4)c4ccccn34)cc2c1=O [Compound No. 36, 6-({1-[3-(3-Methyl-1,2,4-oxadiazol-5-yl)phenyl]imidazo[1,5-a]pyridin-3-yl}carbonyl)-3-propylquinazoline-2,4(1H,3H)-dione], the melting point was 276 to 277 °C.

With CCCn1c(C)nc2ccc(C(=O)c3nc(-c4cccc(C(N)=O)c4)c4ccccn34)cc2c1=O [Compound No. 55, 3-{3-[(2-Methyl-4-oxo-3-propyl-3,4-dihydroquinazolin-6-yl)carbonyl]imidazo[1,5-a]pyridin-1-yl}benzamide] the melting point was 238 °C.

Compound Cn1c(=O)n(Cc2ccc(F)cc2)c(=O)c2cc(C(=O)c3nc(-c4cccnc4)c4ccccn34)ccc21 (as salt: hydrochloride) [Compound No. 113, 3-(4-Fluorobenzyl)-1-methyl-6-[(1-pyridin-3-ylimidazo[1,5-a]pyridin-3-yl)carbonyl]quinazoline-2,4(1H,3H)-dione] has a melting point of 267 °C.

For CCCn1c(=O)n(Cc2ccc(F)cc2)c(=O)c2cc(C(=O)c3nc(-c4cccc(C(=O)[O-])c4)c4ccccn34)ccc21.[Na+] [Compound No. 72, Sodium Salt of 3-(3-{[3-(4-fluorobenzyl)-1-propyl-2,4-dioxo-1,2,3,4-tetrahydroquinazolin-6-yl]carbonyl}imidazo[1,5-a]pyridin-1-yl)benzoic acid], the “inhibition of angiogenesis as a percentage of the control” value ([1]; 3 nM) was 36%, the “inhibition of angiogenesis as a percentage of the control” value ([1]; 30 nM) was 24% and the “inhibition of proliferation as percentage of the control” value ([2]; 30 nM) was 38%. The “inhibition of proliferation as percentage of the control” value ([2]; 300 nM) was 55%, the “% inhibition of the angiogenic parameter (dye content)” value (“% inhibition … (dye content)” below) (OF1 female mice; 10 mg/kg, one week) was 43% and the “% inhibition of the inflammatory parameter (mass of the granuloma)” value (“% inhibition … (mass of the granuloma)” for short) (OF1 female mice; 10 mg/kg, one week) was 38%. For the same compound, the “dye content corresponding to the angiogenesis” value (OF1 female mice; 10 mg/kg) was “significantly reduce” and the “weight of the granuloma (dry weight of the skin), inflammation part” value (OF1 female mice; 10 mg/kg) was “significantly reduce”.

In the case of O=C(c1ccc2nc[nH]c(=O)c2c1)c1ncc2ccccn12 [Compound No. 3, 6-(Imidazo[1,5-a]pyridin-3-ylcarbonyl)quinazolin-4(3H)-one], the melting point is reported as 289 °C.

For CCCn1c(=O)[nH]c2ccc(C(=O)c3nc(-c4cccc(C(=O)[O-])c4)c4ccccn34)cc2c1=O.[Na+] [Compound No. 10, Sodium Salt of 3-{3-[(2,4-dioxo-3-propyl-1,2,3,4-tetrahydroquinazolin-6-yl)carbonyl]imidazo[1,5-a]pyridin-1-yl}benzoic acid], the “% inhibition … (dye content)” value (OF1 female mice; 30 mg/kg) was 19% and the “% inhibition … (mass of the granuloma)” value (OF1 female mice; 30 mg/kg) was 19%.

In the case of Cn1c(=O)n(Cc2ccc(F)cc2)c(=O)c2cc(C(=O)c3nc(-c4cccc(C(=O)[O-])c4)c4ccccn34)ccc21.[Na+] [Compound No. 49, Sodium Salt of 3-(3-{[3-(4-fluorobenzyl)-1-methyl-2,4-dioxo-1,2,3,4-tetrahydroquinazolin-6-yl]carbonyl}imidazo[1,5-a]pyridin-1-yl)benzoic acid], the “inhibition of proliferation as percentage of the control” value ([2]; 30 nM) is reported as 9%, the “inhibition of proliferation as percentage of the control” value ([2]; 300 nM) is reported as 29% and the “% inhibition … (dye content)” value (OF1 female mice; 10 mg/kg, one week) is reported as 46%. For the same compound, the “% inhibition … (mass of the granuloma)” value (OF1 female mice; 10 mg/kg, one week) was 40%, the “dye content corresponding to the angiogenesis” value (OF1 female mice; 10 mg/kg) was “significantly reduce” and the “weight of the granuloma (dry weight of the skin), inflammation part” value (OF1 female mice; 10 mg/kg) was “significantly reduce”.

In the case of CCCn1c(=O)[nH]c2ccc(C(=O)c3nc(-c4cccc(C(N)=O)c4)c4ccccn34)cc2c1=O [Compound No. 29, 3-{3-[(2,4-Dioxo-3-propyl-1,2,3,4-tetrahydroquinazolin-6-yl)carbonyl]imidazo[1,5-a]pyridin-1-yl}benzamide], the melting point is reported as 345 to 346 °C.

CN(C)CCNC(=O)c1cccc(-c2nc(C(=O)c3ccc4c(c3)c(=O)n(Cc3ccc(F)cc3)c(=O)n4C)n3ccccc23)c1.Cl showed a melting point of 247 °C.

For CCCn1c(=O)[nH]c2ccc(C(=O)c3ncc4ccc(C(=O)O)cn34)cc2c1=O [Compound No. 8, 3-[(2,4-Dioxo-3-propyl-1,2,3,4-tetrahydroquinazolin-6-yl)carbonyl]imidazo[1,5-a]pyridine-6-carboxylic acid], the melting point was 384 °C.

Work on CCCn1c(C)nc2ccc(C(=O)c3nc(-c4cccc(C(=O)O)c4)c4ccccn34)cc2c1=O [Compound No. 53, 3-{3-[(2-Methyl-4-oxo-3-propyl-3,4-dihydroquinazolin-6-yl)carbonyl]imidazo[1,5-a]pyridin-1-yl}benzoic acid] yielded a melting point of 305 °C.

For CCCn1c(=O)n(CCOc2ccc(F)cc2)c(=O)c2cc(C(=O)c3nc(-c4cccc(C(=O)[O-])c4)c4ccccn34)ccc21.[Na+] [Compound No. 223, Sodium Salt of 3-[3-({3-[2-(4-fluorophenoxy)ethyl]-1-propyl-2,4-dioxo-1,2,3,4-tetrahydroquinazolin-6-yl}carbonyl)imidazo[1,5-a]pyridin-1-yl]benzoic acid], the “% inhibition … (dye content)” value (OF1 female mice; 10 mg/kg, one week) was 43% and the “% inhibition … (mass of the granuloma)” value (OF1 female mice; 10 mg/kg, one week) was 25%.
